From patent US20040101484A1, “Nasal delivery of apomorphine in combination with glycol derivatives” (priority 1998, published 2004)

Key:
[1] = tested on: patients suffering from psychogenic erectile dysfunction; assay: In-clinic efficacy and safety study of nasal apomorphine HCl, double blind double dummy placebo controlled cross over, self graded questionnaire; type: in vivo, human; conditions: nasal administration, containing propylene glycol
[2] = tested on: patients suffering from erectile dysfunction; conditions: intranasal delivery, 2.5 mg to 3.5 mg; cited from earlier work
healthy male subjects = assay: Adverse nasal effects after nasal administration of apomorphine HCl formulations to male subjects (Examples 1-6); type: in vivo, human
Experimental: A series of experiments were performed to illustrate features and advantages of the present invention. Several conditions were common to each experiment. […] Further, none of the subjects took any medication for two weeks prior to these experiments.
A different dosage of apomorphine was administered in each experiment to determine a preferred range of dosages having minimal adverse effects.

[3] = 0.5 mg, without glycol derivatives, three subjects
[4] = 2.0 mg, without glycol derivatives, nine subjects

For `CN1CCc2cccc3c2[C@H]1Cc1ccc(O)c(O)c1-3` [apomorphine], the “Induction of an erection (overall conclusion)” value [1] was “effective in inducing an erection”, the “Induction of an erection compared with nasal placebo or Viagra” value ([1]; listed as apomorphine HCI) was “more effective than a nasal placebo or Viagra in inducing an erection” and the “Induction of an erection compared with nasal placebo or Viagra” value ([1]; listed as apomorphine HCl) was “more effective than nasal placebo or Viagra in inducing an erection”. For the same compound, the Eliciting an erection [2] was “effective for eliciting an erection”, the “Side effects suffered by study participants” value [2] was “extensive and serious side effects including hypotension, nausea, vomiting, impaired vision, diaphoresis and ashen coloring” and the “Adverse nasal effects (overall conclusion)” value (“Adverse nasal effects” for short) (healthy male subjects; 0.5 mg, does not contain glycol derivatives) was “some adverse nasal effects”. The “Number of subjects who did not suffer any symptoms” value (healthy male subjects; [3]) was “One”, the “Number of subjects who suffered from mild nasal burning or pain” value (healthy male subjects; [3]) was “two” and the “Adverse nasal effects” value (healthy male subjects; 1.0 mg dose, does not contain glycol derivatives) was “some adverse nasal effects”. The “Adverse nasal effects” value (healthy male subjects; 1.0 mg, composition with propylene glycol (Table 5), six subjects) was “none of the subjects suffered from adverse nasal effects”, the “Adverse nasal effects” value (healthy male subjects; 2.0 mg, composition with propylene glycol (Table 6), six subjects) was “none of the subjects suffered from adverse nasal effects” and the “Adverse nasal effects” value (healthy male subjects; 2.0 mg, without glycol derivatives) was “some adverse nasal effects”. The “Number of subjects who suffered from mild nasal burning” value (healthy male subjects; [4]) was “One”, the “Number of subjects who suffered from mild to moderate nasal burning” value (healthy male subjects; [4]) was “one” and the “Number of subjects who suffered from mild unusual taste” value (healthy male subjects; [4]) was “four”. The “Adverse nasal effects” value (healthy male subjects; 4.0 mg, does not contain glycol derivatives) was “some adverse nasal effects” and the “Number of subjects who experienced moderate sneezing, somewhat troublesome” value (healthy male subjects; 4.0 mg, does not contain glycol derivatives, two subjects) was “One”.
